Laboratory results reported in article PMC7313537 (PLoS ONE, 2020).

How the values were obtained:
Assay in all cases: Broader kinase panel (PerkinElmer)
Format in all cases: biochemical
Conditions in all cases: 100 nM; read-out: Average Percent Inhibition
EPHA4 = molecular target: T1, EPHA4 (Homo sapiens, UniProt P54764)
T1 construct: purchased In-house HTRF panel (56 kinases) and PerkinElmer (161-kinase panel)
Text: (§1) […]. […] […].

PIM2 = molecular target: T2, PIM2 (Homo sapiens, UniProt Q9P1W9)
T2 construct: purchased In-house HTRF panel (56 kinases) and PerkinElmer (161-kinase panel)
Text: as §1

p38a = molecular target: T3, p38a (Homo sapiens, UniProt Q16539)
T3 construct: purchased In-house HTRF panel (56 kinases) and PerkinElmer (161-kinase panel)
Text: as §1

EPHA2 = EPHA2 (Homo sapiens, UniProt P29317)
Text: as §1

p38-beta 2 = molecular target: T4, p38-beta 2 (Homo sapiens, UniProt Q15759)
T4 construct: purchased In-house HTRF panel (56 kinases) and PerkinElmer (161-kinase panel)
Text: as §1

PKC-beta1 = molecular target: T5, PKC-beta1 (Homo sapiens, UniProt P05771)
T5 construct: purchased In-house HTRF panel (56 kinases) and PerkinElmer (161-kinase panel)
Text: as §1

EPHA1 = molecular target: T6, EPHA1 (Homo sapiens, UniProt P21709)
T6 construct: purchased In-house HTRF panel (56 kinases) and PerkinElmer (161-kinase panel)
Text: as §1

CDK2 = CDK2 (Homo sapiens, UniProt P24941)
Text: as §1

MET M1250T = molecular target: T7, MET M1250T (Homo sapiens, UniProt P08581, M1250T)
T7 construct: purchased In-house HTRF panel (56 kinases) and PerkinElmer (161-kinase panel)
Text: as §1

AKT2 = molecular target: T8, AKT2 (Homo sapiens, UniProt P31751)
T8 construct: purchased In-house HTRF panel (56 kinases) and PerkinElmer (161-kinase panel)
Text: as §1

PKC-delta = molecular target: T9, PKC-delta (Homo sapiens, UniProt Q05655)
T9 construct: purchased In-house HTRF panel (56 kinases) and PerkinElmer (161-kinase panel)
Text: as §1

Abl (T315I) = molecular target: T10, Abl (T315I) (Homo sapiens, UniProt P00519, T315I)
T10 construct: purchased In-house HTRF panel (56 kinases) and PerkinElmer (161-kinase panel)
Text: as §1

TSSK1 = molecular target: T11, TSSK1 (Homo sapiens, UniProt Q9BXA7)
T11 construct: purchased In-house HTRF panel (56 kinases) and PerkinElmer (161-kinase panel)
Text: as §1

NEK1 = molecular target: T12, NEK1 (Homo sapiens, UniProt Q96PY6)
T12 construct: purchased In-house HTRF panel (56 kinases) and PerkinElmer (161-kinase panel)
Text: as §1

Ca MKII_beta = molecular target: T13, Ca MKII_beta (Homo sapiens, UniProt Q13554)
T13 construct: purchased In-house HTRF panel (56 kinases) and PerkinElmer (161-kinase panel)
Text: as §1

PDGFRA (D842V) = molecular target: T14, PDGFRA (D842V) (Homo sapiens, UniProt P16234, D842V)
T14 construct: purchased In-house HTRF panel (56 kinases) and PerkinElmer (161-kinase panel)
Text: as §1

DYRK4 = molecular target: T15, DYRK4 (Homo sapiens, UniProt Q9NR20)
T15 construct: purchased In-house HTRF panel (56 kinases) and PerkinElmer (161-kinase panel)
Text: as §1

CDK5/p25 = molecular target: T16, CDK5/p25 (Homo sapiens, UniProt Q00535)
T16 construct: purchased In-house HTRF panel (56 kinases) and PerkinElmer (161-kinase panel)
Text: as §1

PKC-epsilon = molecular target: T17, PKC-epsilon (Homo sapiens, UniProt Q02156)
T17 construct: purchased In-house HTRF panel (56 kinases) and PerkinElmer (161-kinase panel)
Text: as §1

BTK = BTK (Homo sapiens, UniProt Q06187)
Text: as §1

PKC-eta = molecular target: T18, PKC-eta (Homo sapiens, UniProt P24723)
T18 construct: purchased In-house HTRF panel (56 kinases) and PerkinElmer (161-kinase panel)
Text: as §1

FGFR3 = molecular target: T19, FGFR3 (Homo sapiens, UniProt P22607)
T19 construct: purchased In-house HTRF panel (56 kinases) and PerkinElmer (161-kinase panel)
Text: as §1

LOK = LOK (Homo sapiens, UniProt O94804)
Text: as §1

PKD1 = molecular target: T20, PKD1 (Homo sapiens, UniProt Q15139)
T20 construct: purchased In-house HTRF panel (56 kinases) and PerkinElmer (161-kinase panel)
Text: as §1

NuaK1 = molecular target: T21, NuaK1 (Homo sapiens, UniProt O60285)
T21 construct: purchased In-house HTRF panel (56 kinases) and PerkinElmer (161-kinase panel)
Text: as §1

ALK = molecular target: T22, ALK (Homo sapiens, UniProt Q9UM73)
T22 construct: purchased In-house HTRF panel (56 kinases) and PerkinElmer (161-kinase panel)
Text: as §1

NTRK2 (TRKB) = molecular target: T23, NTRK2 (TRKB) (Homo sapiens, UniProt Q16620)
T23 construct: purchased In-house HTRF panel (56 kinases) and PerkinElmer (161-kinase panel)
Text: as §1

FLT1 = molecular target: T24, FLT1 (Homo sapiens, UniProt P17948)
T24 construct: purchased In-house HTRF panel (56 kinases) and PerkinElmer (161-kinase panel)
Text: as §1

ROCK1 = ROCK1 (Homo sapiens, UniProt Q13464)
Text: as §1

CDK3 = molecular target: T25, CDK3 (Homo sapiens, UniProt Q00526)
T25 construct: purchased In-house HTRF panel (56 kinases) and PerkinElmer (161-kinase panel)
Text: as §1

PKC-theta = molecular target: T26, PKC-theta (Homo sapiens, UniProt Q04759)
T26 construct: purchased In-house HTRF panel (56 kinases) and PerkinElmer (161-kinase panel)
Text: as §1

AurC = molecular target: T27, AurC (Homo sapiens, UniProt Q9UQB9)
T27 construct: purchased In-house HTRF panel (56 kinases) and PerkinElmer (161-kinase panel)
Text: as §1

PRKCI (PKC-iota) = molecular target: T28, PRKCI (PKC-iota) (Homo sapiens, UniProt P41743)
T28 construct: purchased In-house HTRF panel (56 kinases) and PerkinElmer (161-kinase panel)
Text: as §1

BMX = molecular target: T29, BMX (Homo sapiens, UniProt P51813)
T29 construct: purchased In-house HTRF panel (56 kinases) and PerkinElmer (161-kinase panel)
Text: as §1

PKD2 = molecular target: T30, PKD2 (Homo sapiens, UniProt Q9BZL6)
T30 construct: purchased In-house HTRF panel (56 kinases) and PerkinElmer (161-kinase panel)
Text: as §1

CSNK1A1 = molecular target: T31, CSNK1A1 (Homo sapiens, UniProt P48729)
T31 construct: purchased In-house HTRF panel (56 kinases) and PerkinElmer (161-kinase panel)
Text: as §1

CK1d = molecular target: T32, CK1d (Homo sapiens, UniProt P48730)
T32 construct: purchased In-house HTRF panel (56 kinases) and PerkinElmer (161-kinase panel)
Text: as §1

EPHB2 = molecular target: T33, EPHB2 (Homo sapiens, UniProt P29323)
T33 construct: purchased In-house HTRF panel (56 kinases) and PerkinElmer (161-kinase panel)
Text: as §1

p38-gamma = molecular target: T34, p38-gamma (Homo sapiens, UniProt P53778)
T34 construct: purchased In-house HTRF panel (56 kinases) and PerkinElmer (161-kinase panel)
Text: as §1

RET Y791F = molecular target: T35, RET Y791F (Homo sapiens, UniProt P07949, Y791F)
T35 construct: purchased In-house HTRF panel (56 kinases) and PerkinElmer (161-kinase panel)
Text: as §1

ROS (ROS1) = molecular target: T36, ROS (ROS1) (Homo sapiens, UniProt P08922)
T36 construct: purchased In-house HTRF panel (56 kinases) and PerkinElmer (161-kinase panel)
Text: as §1

ZIPK (DAPK3) = molecular target: T37, ZIPK (DAPK3) (Homo sapiens, UniProt O43293)
T37 construct: purchased In-house HTRF panel (56 kinases) and PerkinElmer (161-kinase panel)
Text: as §1

SGK3 = SGK3 (Homo sapiens, UniProt Q96BR1)
Text: as §1

T12 sequence (Q96PY6 whole entry): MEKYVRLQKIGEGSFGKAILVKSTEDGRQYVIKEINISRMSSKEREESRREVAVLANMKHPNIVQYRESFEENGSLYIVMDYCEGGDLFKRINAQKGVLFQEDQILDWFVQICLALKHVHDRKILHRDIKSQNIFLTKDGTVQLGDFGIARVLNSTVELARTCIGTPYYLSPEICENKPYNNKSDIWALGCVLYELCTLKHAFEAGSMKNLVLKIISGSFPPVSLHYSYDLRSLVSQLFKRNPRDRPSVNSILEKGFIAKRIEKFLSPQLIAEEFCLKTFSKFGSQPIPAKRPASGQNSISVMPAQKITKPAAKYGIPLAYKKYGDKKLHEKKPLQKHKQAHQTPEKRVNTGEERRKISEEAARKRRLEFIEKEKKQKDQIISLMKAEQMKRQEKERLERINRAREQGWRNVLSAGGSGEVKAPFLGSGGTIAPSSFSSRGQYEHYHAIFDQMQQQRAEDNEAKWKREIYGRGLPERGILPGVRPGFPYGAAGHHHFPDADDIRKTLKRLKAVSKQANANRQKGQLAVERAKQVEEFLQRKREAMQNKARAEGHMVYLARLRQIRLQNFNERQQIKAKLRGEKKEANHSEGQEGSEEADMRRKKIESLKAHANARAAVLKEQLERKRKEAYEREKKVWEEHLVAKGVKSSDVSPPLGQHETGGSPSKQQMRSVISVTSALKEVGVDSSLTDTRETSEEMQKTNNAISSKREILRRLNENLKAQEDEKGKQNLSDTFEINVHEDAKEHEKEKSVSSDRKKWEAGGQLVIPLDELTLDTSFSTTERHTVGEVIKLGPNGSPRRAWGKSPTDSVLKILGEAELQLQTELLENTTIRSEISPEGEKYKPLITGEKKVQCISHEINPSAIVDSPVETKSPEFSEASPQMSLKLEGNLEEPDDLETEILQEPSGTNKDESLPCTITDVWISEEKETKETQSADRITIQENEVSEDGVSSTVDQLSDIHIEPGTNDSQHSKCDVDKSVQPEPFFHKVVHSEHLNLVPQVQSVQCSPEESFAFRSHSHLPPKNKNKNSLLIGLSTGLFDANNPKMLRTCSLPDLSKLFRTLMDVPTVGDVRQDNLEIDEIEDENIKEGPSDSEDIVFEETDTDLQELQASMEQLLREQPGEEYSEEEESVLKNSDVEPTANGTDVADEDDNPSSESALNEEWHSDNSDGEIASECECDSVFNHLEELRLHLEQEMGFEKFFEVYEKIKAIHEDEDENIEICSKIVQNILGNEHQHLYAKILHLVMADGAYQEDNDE
T2 sequence (Q9P1W9 whole entry, species assumed): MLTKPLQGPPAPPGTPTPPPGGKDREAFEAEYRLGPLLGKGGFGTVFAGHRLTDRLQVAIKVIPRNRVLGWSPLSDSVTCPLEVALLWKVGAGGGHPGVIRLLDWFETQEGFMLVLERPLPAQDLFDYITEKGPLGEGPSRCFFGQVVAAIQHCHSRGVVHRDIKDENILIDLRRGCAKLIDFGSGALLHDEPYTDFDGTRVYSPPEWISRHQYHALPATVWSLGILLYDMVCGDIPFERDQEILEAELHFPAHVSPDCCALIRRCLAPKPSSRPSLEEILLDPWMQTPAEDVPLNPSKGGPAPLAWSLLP
T8 sequence (P31751 whole entry): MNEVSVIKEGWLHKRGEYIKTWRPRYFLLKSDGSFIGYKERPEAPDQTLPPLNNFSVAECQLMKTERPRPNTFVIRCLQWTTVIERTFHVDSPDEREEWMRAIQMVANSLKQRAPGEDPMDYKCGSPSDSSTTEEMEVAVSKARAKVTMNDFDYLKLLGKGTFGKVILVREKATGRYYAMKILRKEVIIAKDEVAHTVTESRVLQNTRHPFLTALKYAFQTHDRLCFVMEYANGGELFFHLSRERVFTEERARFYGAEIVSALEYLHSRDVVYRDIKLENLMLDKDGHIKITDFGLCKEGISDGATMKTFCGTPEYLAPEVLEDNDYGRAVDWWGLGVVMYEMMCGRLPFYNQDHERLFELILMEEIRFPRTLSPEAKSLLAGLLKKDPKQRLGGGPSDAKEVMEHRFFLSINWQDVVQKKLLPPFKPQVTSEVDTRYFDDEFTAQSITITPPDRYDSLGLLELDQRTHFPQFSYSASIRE
T29 sequence (P51813 whole entry): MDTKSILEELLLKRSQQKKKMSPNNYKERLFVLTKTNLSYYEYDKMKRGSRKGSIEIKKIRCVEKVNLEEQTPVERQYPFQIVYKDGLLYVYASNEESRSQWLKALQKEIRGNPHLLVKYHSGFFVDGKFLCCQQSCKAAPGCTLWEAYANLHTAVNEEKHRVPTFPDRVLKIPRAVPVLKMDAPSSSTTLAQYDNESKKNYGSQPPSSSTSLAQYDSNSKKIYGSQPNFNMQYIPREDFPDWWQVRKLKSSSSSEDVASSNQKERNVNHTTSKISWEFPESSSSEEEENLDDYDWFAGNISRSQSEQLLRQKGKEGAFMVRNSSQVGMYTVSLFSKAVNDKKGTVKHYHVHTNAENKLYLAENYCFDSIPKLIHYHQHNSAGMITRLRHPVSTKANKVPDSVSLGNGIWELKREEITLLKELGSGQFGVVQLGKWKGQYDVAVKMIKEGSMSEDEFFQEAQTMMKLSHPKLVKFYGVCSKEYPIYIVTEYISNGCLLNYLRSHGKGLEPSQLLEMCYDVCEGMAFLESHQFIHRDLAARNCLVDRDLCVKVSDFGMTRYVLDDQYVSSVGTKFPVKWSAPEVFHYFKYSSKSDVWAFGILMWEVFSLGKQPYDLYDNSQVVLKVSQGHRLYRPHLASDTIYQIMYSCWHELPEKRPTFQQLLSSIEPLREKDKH
T1 sequence (P54764 20-986): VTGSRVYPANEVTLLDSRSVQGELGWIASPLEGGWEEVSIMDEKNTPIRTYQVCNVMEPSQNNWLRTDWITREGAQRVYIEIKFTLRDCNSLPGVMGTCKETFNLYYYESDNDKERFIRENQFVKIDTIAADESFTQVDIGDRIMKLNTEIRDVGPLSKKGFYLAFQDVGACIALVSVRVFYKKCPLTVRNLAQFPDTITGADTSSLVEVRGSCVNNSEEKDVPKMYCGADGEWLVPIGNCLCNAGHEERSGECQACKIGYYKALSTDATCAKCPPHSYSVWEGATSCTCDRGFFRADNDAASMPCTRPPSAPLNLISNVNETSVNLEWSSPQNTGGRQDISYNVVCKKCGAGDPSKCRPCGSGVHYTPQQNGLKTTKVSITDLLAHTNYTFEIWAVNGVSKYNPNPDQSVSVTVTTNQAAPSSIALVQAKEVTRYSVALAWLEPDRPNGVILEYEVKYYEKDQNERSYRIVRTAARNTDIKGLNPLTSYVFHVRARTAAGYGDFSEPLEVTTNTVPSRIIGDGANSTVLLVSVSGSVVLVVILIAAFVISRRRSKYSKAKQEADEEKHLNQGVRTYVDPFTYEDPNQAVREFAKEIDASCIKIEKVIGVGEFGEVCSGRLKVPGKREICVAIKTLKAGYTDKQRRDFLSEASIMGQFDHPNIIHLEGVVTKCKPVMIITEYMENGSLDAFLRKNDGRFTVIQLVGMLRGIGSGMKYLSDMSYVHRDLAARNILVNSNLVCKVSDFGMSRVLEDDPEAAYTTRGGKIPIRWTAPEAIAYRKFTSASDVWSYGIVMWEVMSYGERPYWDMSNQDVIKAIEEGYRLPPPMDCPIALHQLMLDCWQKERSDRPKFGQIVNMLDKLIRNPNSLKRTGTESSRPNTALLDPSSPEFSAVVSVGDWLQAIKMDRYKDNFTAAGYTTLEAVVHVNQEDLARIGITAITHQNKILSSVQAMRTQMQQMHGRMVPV
T16 sequence (Q00535 whole entry): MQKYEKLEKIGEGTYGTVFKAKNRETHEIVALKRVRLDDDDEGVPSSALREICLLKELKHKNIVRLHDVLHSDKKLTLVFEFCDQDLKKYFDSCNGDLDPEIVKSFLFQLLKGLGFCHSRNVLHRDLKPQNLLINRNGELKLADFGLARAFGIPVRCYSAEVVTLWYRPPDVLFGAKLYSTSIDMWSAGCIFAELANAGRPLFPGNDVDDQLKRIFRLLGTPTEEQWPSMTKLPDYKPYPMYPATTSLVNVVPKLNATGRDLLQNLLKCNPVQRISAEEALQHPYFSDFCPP
T16 sequence (Q15078 99-307 partner limits assumed): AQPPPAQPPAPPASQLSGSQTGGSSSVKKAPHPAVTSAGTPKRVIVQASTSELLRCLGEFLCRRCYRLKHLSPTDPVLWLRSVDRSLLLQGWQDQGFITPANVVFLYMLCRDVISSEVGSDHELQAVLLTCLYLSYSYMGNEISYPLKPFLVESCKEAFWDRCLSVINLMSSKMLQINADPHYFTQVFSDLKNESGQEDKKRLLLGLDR
T18 sequence (P24723 whole entry): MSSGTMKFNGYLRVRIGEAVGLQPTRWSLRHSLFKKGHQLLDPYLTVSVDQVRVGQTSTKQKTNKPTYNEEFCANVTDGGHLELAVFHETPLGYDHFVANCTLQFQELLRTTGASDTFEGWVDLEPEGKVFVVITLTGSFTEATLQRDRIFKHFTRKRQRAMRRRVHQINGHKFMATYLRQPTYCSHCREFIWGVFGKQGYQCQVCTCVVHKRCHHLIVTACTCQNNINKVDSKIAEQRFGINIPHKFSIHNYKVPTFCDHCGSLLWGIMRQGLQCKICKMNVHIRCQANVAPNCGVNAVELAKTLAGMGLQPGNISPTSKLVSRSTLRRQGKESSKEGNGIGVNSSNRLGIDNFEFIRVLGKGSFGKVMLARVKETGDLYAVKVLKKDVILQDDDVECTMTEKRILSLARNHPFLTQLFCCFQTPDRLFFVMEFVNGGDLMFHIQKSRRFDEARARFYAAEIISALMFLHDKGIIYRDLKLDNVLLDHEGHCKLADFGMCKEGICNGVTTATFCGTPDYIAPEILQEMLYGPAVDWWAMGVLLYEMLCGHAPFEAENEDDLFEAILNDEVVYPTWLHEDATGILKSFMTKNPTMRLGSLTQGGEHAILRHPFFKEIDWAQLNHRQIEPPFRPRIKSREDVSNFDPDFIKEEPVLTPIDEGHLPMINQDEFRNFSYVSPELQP

## CCN1C(=O)N(c2c(F)c(OC)cc(OC)c2F)Cc2cnc3[nH]c(CN4CCOCC4)cc3c21 [INCB054828, pemigatinib]
EPHA4
  inhibition at 0.1 µM: 3%
PIM2
  inhibition at 0.1 µM: -5%
p38a
  inhibition at 0.1 µM: 1%
EPHA2
  inhibition at 0.1 µM: 3%
p38-beta 2
  inhibition at 0.1 µM: 2%
PKC-beta1
  inhibition at 0.1 µM: 7%
EPHA1
  inhibition at 0.1 µM: 2%
CDK2
  inhibition at 0.1 µM: -2%
MET M1250T
  inhibition at 0.1 µM: 1%
AKT2
  inhibition at 0.1 µM: 2%
PKC-delta
  inhibition at 0.1 µM: 9%
Abl (T315I)
  inhibition at 0.1 µM: 2%
TSSK1
  inhibition at 0.1 µM: -3%
NEK1
  inhibition at 0.1 µM: 1%
Ca MKII_beta
  inhibition at 0.1 µM: -9%
PDGFRA (D842V)
  inhibition at 0.1 µM: 18%
DYRK4
  inhibition at 0.1 µM: -4%
CDK5/p25
  inhibition at 0.1 µM: -4%
PKC-epsilon
  inhibition at 0.1 µM: 1%
BTK
  inhibition at 0.1 µM: -3%
PKC-eta
  inhibition at 0.1 µM: -4%
FGFR3
  inhibition at 0.1 µM: 98%
LOK
  inhibition at 0.1 µM: -1%
PKD1
  inhibition at 0.1 µM: -3%
NuaK1
  inhibition at 0.1 µM: -3%
ALK
  inhibition at 0.1 µM: -1%
NTRK2 (TRKB)
  inhibition at 0.1 µM: 1%
FLT1
  inhibition at 0.1 µM: 13%
ROCK1
  inhibition at 0.1 µM: -3%
CDK3
  inhibition at 0.1 µM: 11%
PKC-theta
  inhibition at 0.1 µM: 2%
AurC
  inhibition at 0.1 µM: -4%
PRKCI (PKC-iota)
  inhibition at 0.1 µM: 3%
BMX
  inhibition at 0.1 µM: 3%
PKD2
  inhibition at 0.1 µM: -7%
CSNK1A1
  inhibition at 0.1 µM: -1%
CK1d
  inhibition at 0.1 µM: -1%
EPHB2
  inhibition at 0.1 µM: 3%
p38-gamma
  inhibition at 0.1 µM: -3%
RET Y791F
  inhibition at 0.1 µM: 6%
ROS (ROS1)
  inhibition at 0.1 µM: 3%
ZIPK (DAPK3)
  inhibition at 0.1 µM: 7%
SGK3
  inhibition at 0.1 µM: 13%
